Like-named read-outs stand apart in the source and are kept apart here.
Assays:
[1] = test system: phosphodiesterase-4 (PDE-4) extract from U937 cells; assay: Phosphodiesterase-4 inhibiting activity (isotopic two-step method); format: biochemical; settings: 1.01 μM [3H]cAMP+cAMP
[2] = test system: peripheral blood mononuclear cells (PBMC) stimulated with allogeneic PBMC or EBV-transformed human B cells (RPMI1788); assay: Mixed lymphocyte reaction (MLR) assay; format: cell-based
Outline: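 Compounds, held as 10 mM DMSO stocks and diluted in culture medium, were added to PBMC stimulated by 30 Gy-irradiated allogeneic PBMC or RPMI1788 cells. Proliferation was read as [3H]-thymidine uptake (1 μCi, final 16 h) after 5 days at 37° C. Inhibition was derived from cpm.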

[3] = test system: production of human IL-1β by PBMC in response to LPS; assay: IL-1β assay (LPS-stimulated PBMC, sandwich ELISA); format: cell-based; settings: LPS 1 μg/ml, 72 hours
Experimental: Peripheral blood mononuclear cells (herein referred as PBMC), in response to stimulation by lipopolysaccharide (LPS), a gram-negative bacterial endotoxin, produce various […], in particular human IL-1β. Inhibition of the activation of PBMC can therefore be measured by the level of suppression of the production of IL-1β by PBMC in response to stimulation by LPS.
Such inhibition measurement was performed as follows: PBMC were isolated from heparinized peripheral blood by density gradient centrifugation over Lymphoprep (commercially available from Nycomed, Norway). LPS was then added to the PMBC suspension in complete medium (10^6 cells/ml) at a final concentration of 1 μg/ml. The pteridine derivative to be tested was added at different concentrations (0.1 μM, 1 μM and 10 μM) and the cells were incubated at 37° C. for 72 hours in 5% CO2. The supernatants were collected, then IL-1β concentrations were measured with an anti-IL-1β antibody in a sandwich ELISA. The calorimetric reading of the ELISA was measured by a Multiskan RC plate reader (commercially available from ThermoLabsystems, Finland) at 450 nm (reference wavelength: 690 nm). Data analysis was performed with Ascent software 2.6. (also from ThermoLabsystems, Finland): a standard curve (recombinant human IL-1β) was drawn and the amount (pg/ml) of each sample on the standard curve was determined.
The % suppression of human IL-1β by the pyrido[3,2-d]pyrimidine derivatives of this invention was calculated using the formula: [formula]

[4] = test system: production of human TNF-α by PBMC in response to LPS; assay: TNF-α assay (LPS-stimulated PBMC, sandwich ELISA); format: cell-based
Outline: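 Human PBMC isolated from heparinised blood by density gradient (10^6 cells/ml) stimulated with LPS at 1 μg/ml final, with test compound at 0.1, 1 and 10 μM, 72 h at 37° C, 5% CO2. Supernatant TNF-α quantified by sandwich ELISA against recombinant standard curve; % suppression calculated.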

[5] = Cytostatic effect on Huh-5-2 cells (MTS method); format: cell-based; settings: human, 50% inhibition of cell growth
Experimental: (§1) Huh-5-2 cells [a cell line with a persistent HCV replicon I3891uc-ubi-neo/NS3-3′/5.1; replicon with firefly luciferase-ubiquitin-neomycin phosphotransferase fusion protein and EMCV-IRES driven NS3-5B HCV polyprotein] was cultured in a RPMI medium (commercially available from Gibco) supplemented with 10% fetal calf serum, 2 mM L-glutamine (commercially available from Life Technologies), 1× non-essential amino acids (commercially available from Life Technologies); 100 IU/ml penicillin, 100 μg/ml streptomycin and 250 μg/ml G418 (Geneticin, commercially available from Life Technologies). Cells were seeded at a density of 7,000 cells per well in 96 well View Plate (commercially available from Packard) in a medium containing the same components as described above, except for G418. Cells were allowed to adhere and proliferate for 24 hours. […] Luciferase activity was measured by adding 50 μl of 1×Glo-lysis buffer (commercially available from Promega) for 15 minutes followed by 50 μl of the Steady-Glo Luciferase assay reagent (commercially available from Promega). Luciferase activity was measured with a luminometer and the signal in each individual well was expressed as a percentage of the untreated cultures. […] Instead the density of the culture was measured by means of the MTS method (commercially available from Promega). […]

[6] = test system: HCV replicon in Huh-5-2 cells; assay: Anti-HCV assay/replicon assay (luciferase); format: cell-based; settings: Hepatitis C virus
Experimental: as §1

[7] = Homo sapiens, RPMI-1788, 50% suppression of the MLR, [3H]-thymidine incorporation, read-out: MLR
[8] = Homo sapiens, PBMC, LPS 1 μg/ml, 72 hours, read-out: TNF α

**Q.** With `COc1ccc(-c2ccc3nc(N)nc(N4CCOCC4)c3n2)cc1OC` [Example 41, 2-amino-4-morpholino-6-(3,4-dimethoxyphenyl)-pyrido[3,2-d]pyrimidine] as the compound, how does the IC50 [1] read?
**A.** 410 nM

**Q.** What about the IC50 [2, 7] of the same compound?
**A.** 37 nM

**Q.** What about the IC50 ([3]; Homo sapiens, PBMC) of the same compound?
**A.** 7900 nM

**Q.** What about the IC50 [4, 8] of the same compound?
**A.** 0.03 µM

**Q.** Which CC50 at 72 h [5] does the source give for `COc1ccc(-c2ccc3nc(N)nc(N[C@H]4CC[C@H](N)CC4)c3n2)cc1OC` [Example 36] here?
**A.** 7700 nM

**Q.** And the IC50 ([2]; Homo sapiens, RPMI-1788, read-out: MLR (μM))?
**A.** 6500 nM

**Q.** And the EC50 ([6]; Huh-5-2, 72 h)?
**A.** 1000 nM

**Q.** And the IC50 ([4]; Homo sapiens, PBMC, 72 h, read-out: TNF α (μM))?
**A.** 2.9 µM

**Q.** With `COc1ccc(-c2ccc3nc(N)nc(N4CCN(C(=O)Nc5cccc(C)c5)CC4)c3n2)cc1OC` [Example 42, 2-amino-4-(4-{[(3-methylphenyl)amino]carbonyl}piperazin-1-yl)-6-(3,4-dimethoxyphenyl)-pyrido[3,2-d]pyrimidine] as the compound, how does the IC50 [1] read?
**A.** 61 nM

**Q.** And the IC50 [2, 7]?
**A.** 0.064 nM

**Q.** And the IC50 ([3]; Homo sapiens, PBMC)?
**A.** 1800 nM

**Q.** What about the IC50 [4, 8] of the same compound?
**A.** 0.06 µM

**Q.** Which results are given for `COc1ccc(-c2ccc3nc(N)nc(Nc4cccc(C)c4)c3n2)cc1OC` [Example 27, 2-amino-4-(3-methyl-anilino)-6-(3,4-dimethoxyphenyl)-pyrido[3,2-d]pyrimidine]?
**A.** CC50 at 72 h [5]: > 50000 nM; IC50 [2, 7]: 5700 nM; EC50 ([6]; Huh-5-2 replicon cells, 72 hours, read-out: EC50): 500 nM; IC50 [4, 8]: 6.4 µM

**Q.** For `CCCCCOc1nc(N)nc2ccc(-c3cccc(F)c3)nc12`, which melting point is on record?
**A.** 142 to 143 °C

**Q.** For `NC(=O)c1nc(Cl)ccc1N`, which melting point is on record?
**A.** 176 to 177 °C

**Q.** For `CCCCOc1nc(N)nc2ccc(-c3cccc(F)c3)nc12`, which melting point is on record?
**A.** 160 to 161 °C

**Q.** For `Nc1nc2ccc(Cl)nc2c(=O)[nH]1`, which melting point is on record?
**A.** > 330 °C

**Q.** With `CCC(C)Oc1nc(N)nc2ccc(-c3ccccc3F)nc12` (stereo not drawn) as the compound, how does the melting point read?
**A.** 159 °C

**Q.** Which melting point does the source give for `Nc1nc(OCc2ccccc2)c2nc(-c3ccc(F)cc3)ccc2n1` here?
**A.** 225 °C

**Q.** For `CCCCOc1nc(N)nc2ccc(-c3ccccc3F)nc12`, which melting point is on record?
**A.** 147 to 148 °C

**Q.** Which melting point does the source give for `CCCCOc1nc(NC(C)=O)nc2ccc(-c3ccc(F)cc3)nc12` here?
**A.** 170 °C

**Q.** For `COc1ccc(-c2ccc3nc(N)nc(NCc4cccs4)c3n2)cc1OC` [Example 32, 2-amino-4-(thienyl-2-methylamino)-6-(3,4-dimethoxyphenyl)-pyrido[3,2-d]pyrimidine-2,4-diamine], which IC50 ([2]; 50% suppression of the MLR, [3H]-thymidine incorporation, read-out: MLR) is on record?
**A.** 800 nM

**Q.** And the IC50 [3]?
**A.** 6900 nM

**Q.** What about the IC50 ([4]; LPS 1 μg/ml, 72 hours, read-out: TNF α) of the same compound?
**A.** 0.8 µM
